According to the SangsterLogP compilation:

assay: method code SF-AS, from DOI: 10.1002/zfch.19860260715; conditions: pH 7.4

logD | Compound
0.06 | COc1ccc(NC(=O)NNC(C)=O)cc1
0.39 | COc1cccc(NC(=O)NNC(C)=O)c1
1.63 | CC(=O)NNC(=O)Nc1cccc(C(F)(F)F)c1
0.76 | CC(=O)NNC(=O)Nc1ccc(C)cc1
0.11 | CC(=O)NNC(=O)Nc1ccc(N(C)C)cc1
0.77 | CC(=O)NNC(=O)Nc1cccc(C)c1

Further lines, the compound ahead of its results:

Compound | logD
CC(=O)NNC(=O)Nc1ccc(Oc2ccccc2)cc1 | 2.09
CCOc1ccc(NC(=O)NNC(C)=O)cc1 | 0.55
CC(=O)NNC(=O)Nc1ccc(C#N)cc1 | 0.37
CC(=O)NNC(=O)Nc1ccc(C(C)(C)C)cc1 | 2.14
